Test results taken from US8404670B2 (Sunovion Pharmaceuticals Inc., priority 2009, dated 2013).

Target: T1, human histamine H3 receptor (Homo sapiens, UniProt Q9Y5N1)
T1 construct: host or cells: cells expressing the human H3 receptor
Test: H3 GTPγS assay (SPA method), histamine H3 in vitro assay
Format: biochemical
Details: GTPγ[35S] binding to membranes of cells expressing human H3; antagonist mode with R-γ-Me-Histamine at EC80 (30 nM); in one embodiment HCl salts tested; read-out: Potency (functional potency as indicated by IC50)

T1 sequence (Q9Y5N1 whole entry): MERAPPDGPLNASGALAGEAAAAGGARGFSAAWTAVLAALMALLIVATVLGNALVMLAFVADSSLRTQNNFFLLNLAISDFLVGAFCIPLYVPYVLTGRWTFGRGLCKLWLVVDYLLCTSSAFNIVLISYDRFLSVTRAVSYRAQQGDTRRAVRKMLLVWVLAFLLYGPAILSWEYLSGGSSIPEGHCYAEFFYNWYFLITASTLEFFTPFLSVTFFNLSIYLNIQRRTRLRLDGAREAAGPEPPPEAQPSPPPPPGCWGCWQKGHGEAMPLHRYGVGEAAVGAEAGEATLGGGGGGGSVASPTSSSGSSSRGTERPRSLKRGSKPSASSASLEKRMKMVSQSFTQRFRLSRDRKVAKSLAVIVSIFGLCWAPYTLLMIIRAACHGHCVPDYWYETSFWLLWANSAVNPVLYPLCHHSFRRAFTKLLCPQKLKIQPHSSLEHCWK

IC50, ≤ 10 nM:
c1cc2nc3n(c2cc1CN1CCOCC1)CCN(C1CCC1)CC3 [Compound 88, 3-cyclobutyl-8-(morpholin-1-ylmethyl)-2,3,4,5-tetrahydro-1H-[1,4]diazepino[1,7-a]benzimidazole]
O=C(C1CCC1)N1CCCC(c2ccc3c(c2)nc2n3CCN(C3CCC3)CC2)C1 (stereo not shown) [Compound 174]
N#Cc1ccc(-c2ccc3c(c2)nc2n3CCN(C3CCC3)CC2)cc1F [Compound 22]
FC1CCN(c2ccc3c(c2)nc2n3CCN(C3CCC3)CC2)CC1 [Compound 179, 3-cyclobutyl-8-(4-fluoropiperidin-1-yl)-2,3,4,5-tetrahydro-1H-benzo[4,5]imidazo[1,2-d][1,4]diazepine]
